Measured values published in paper PMC6273394, “Discovery of a New Class of Sortase A Transpeptidase Inhibitors to Tackle Gram-Positive Pathogens: 2-(2-Phenylhydrazinylidene)alkanoic Acids and Related Derivatives” (Molecules, 2016).
Read-outs that look alike come from different tables or passages of the source.

Columns and labels:
S. aureus SrtA = S. aureus SrtA (Staphylococcus aureus, UniProt Q2FV99); assay: biochemical
S. aureus ATCC 25923 = assay: Interference with biofilm formation assay (safranin method); format: cell-based; details: 100 µM compound, 24 h at 37 °C; for inhibition at 100 µM: Staphylococcus aureus, ATCC25923, 24 h, read-out: Percentages of Inhibition of Biofilm Formation S. aureus 25923
Experimental: (§1) The reference strains S. aureus ATCC 29213, S. aureus ATCC 25923, S. aureus ATCC 6538 and S. epidermidis RP62A were used in the assays.
(§2) The staphylococcal strains were tested for their ability to form biofilms. Briefly, bacteria were grown in TSB containing 2% glucose overnight at 37 °C in a shaking bath and then diluted 1:200 to a suspension with optical density (OD) of about 0.040 at 570 nm. Polystyrene 24-well tissue culture plates were filled with 1 mL of diluted suspension and incubated for 24 h at 37 °C. The wells were then washed three times with 1 mL of sterile phosphate-buffered saline (PBS) and stained with 1 mL of safranin 0.1% v/v for 1 min. The excess stain was removed by placing the plates under running tap water. Plates were dried overnight in an inverted position at 37 °C. Safranin-stained adherent bacteria in each well were re-dissolved to homogeneity in 1 mL of 30% v/v glacial acetic acid, and the OD was read at 492 nm. Each assay was performed in triplicate and repeated at least twice.
(§3) The procedure described above was used to evaluate the activity of phenyl-hydrazinylidene-derivatives in the prevention of biofilm formation. Polystyrene 24-well tissue culture plates were filled with 1 mL of diluted bacterial suspension, obtained and diluted as previously described, and a concentration of 100 µM of each compound was directly added to the bacterial suspension at time zero and incubated at 37 °C for 24 h. The wells were then washed and stained with safranin as per the biofilm forming assay. By comparing the average optical density (O.D.) of the growth control wells with the sample wells, the following formula was used to calculate the percentages of inhibition for each concentration of the sample: (2) Inhibition (%)=OD growth control−OD sample/OD growth control×100
(§4) Each assay was performed in triplicate and assays were repeated at least twice.

S. aureus ATCC 29213 = assay: as above; format: cell-based; details: 100 µM compound, 24 h at 37 °C; for inhibition at 100 µM: Staphylococcus aureus, ATCC29213, 24 h, read-out: Percentages of Inhibition of Biofilm Formation S. aureus 29213
Experimental: as §1, §2, §3, §4

S. aureus ATCC 6538 = assay: as above; format: cell-based; details: 100 µM compound, 24 h at 37 °C; for inhibition at 100 µM: Staphylococcus aureus, ATCC6538, 24 h, read-out: Percentages of Inhibition of Biofilm Formation S. aureus 6538
Experimental: as §1, §2, §3, §4

S. epidermidis RP62A = assay: as above; format: cell-based; details: 100 µM compound, 24 h at 37 °C; for inhibition at 100 µM: Staphylococcus epidermidis, RP62A, 24 h, read-out: Percentages of Inhibition of Biofilm Formation S. epidermidis RP62A
Experimental: as §1, §2, §3, §4

S. aureus SrtA, sequence (Q2FV99 60-206): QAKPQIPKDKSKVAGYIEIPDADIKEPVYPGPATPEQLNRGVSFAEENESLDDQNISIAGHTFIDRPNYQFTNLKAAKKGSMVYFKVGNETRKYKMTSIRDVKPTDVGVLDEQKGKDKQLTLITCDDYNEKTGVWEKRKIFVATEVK

## CCOC(=O)/C(=N\Nc1ccc([N+](=O)[O-])cc1)C(C)=O [Compound 1d, Ethyl (2Z)-3-Oxo-2(2-(4-nitrophenyl)hydrazinylidene)butanoate]
S. aureus SrtA
  IC50: 100 µM
other
  melting point: 120 to 122 °C

## CC(=O)/C(=N/Nc1ccc(C)cc1)C(=O)O [Compound 5f, (2Z)-3-Oxo-2-(2-(4-methylphenyl)hydrazinylidene)butanoic acid]
S. aureus SrtA
  IC50: 100 µM
S. aureus ATCC 25923
  inhibition at 100 µM: 33.8 ± 2.7%
S. aureus ATCC 29213
  inhibition at 100 µM: 40.8 ± 2.1%
S. aureus ATCC 6538
  inhibition at 100 µM: 40.3 ± 1.9%
S. epidermidis RP62A
  inhibition at 100 µM: 24.4 ± 0.9%

## COc1ccc2cc3[n+](cc2c1OC)CCc1cc2c(cc1-3)OCO2 [BC, Berberine chloride, reference compound]
S. aureus SrtA
  IC50: 120 µM

## CCOC(=O)/C(=N\Nc1ccccc1)C(=O)c1ccccc1 [Compound 1g, Ethyl (2Z)-3-Oxo-3-phenyl-2-(2-phenylhydrazinylidene)propanoate]
S. aureus SrtA; read-out: IC50 (activity as sortase A inhibitors), 10 µM S. aureus sortase A, preincubated 1 h at 37 °C, 50 µM dabcyl-QALPETGEE-edans substrate
  IC50: > 500 µM

## CC(=O)/C(=N/Nc1ccccc1)C(N)=O [Compound 7a, (2Z)-3-Oxo-2-(2-phenylhydrazinylidene)butanamide]
S. aureus SrtA
  IC50: 120 µM
S. aureus ATCC 25923
  inhibition at 100 µM: 42.1 ± 1.8%
S. aureus ATCC 29213
  inhibition at 100 µM: 48.2 ± 2.9%
S. aureus ATCC 6538
  inhibition at 100 µM: 42.8 ± 1.1%
S. epidermidis RP62A
  inhibition at 100 µM: 45.9 ± 2.1%
other
  melting point: 134 to 136 °C

## CC(=O)/C(=N/Nc1cccc(Cl)c1)C(=O)O [Compound 5c, (2Z)-3-Oxo-2-(2-(3-chlorophenyl)hydrazinylidene)butanoic acid]
S. aureus SrtA
  IC50: 87 µM
S. aureus ATCC 25923
  inhibition at 100 µM: 41.1 ± 0.7%
S. aureus ATCC 29213
  inhibition at 100 µM: 69 ± 4.6%
S. aureus ATCC 6538
  inhibition at 100 µM: 30.3 ± 0.4%
S. epidermidis RP62A
  inhibition at 100 µM: 22.9 ± 1.3%

## CCOC(=O)/C(=N/Nc1cc(OC)c(OC)c(OC)c1)C(C)=O [Compound 1e, Ethyl (2E)-3-Oxo-2-(2-(3,4,5-trimethoxyphenyl)hydrazinylidene)butanoate]
S. aureus SrtA
  IC50: 110 µM
other
  melting point: 78 to 80 °C

## CCOC(=O)/C(=N/Nc1ccccc1)C(C)=O [Compound 1a, Ethyl (2E)-3-Oxo-2-(2-phenylhydrazinylidene)butanoate]
S. aureus SrtA
  IC50: 192 µM
other
  melting point: 78 to 80 °C

## CC(=O)/C(=N/Nc1ccc([N+](=O)[O-])cc1)C(=O)O [Compound 5d, (2Z)-3-Oxo-2-(2-(4-nitrophenyl)hydrazinylidene)butanoic acid]
S. aureus SrtA
  IC50: 57 µM
S. aureus ATCC 25923
  inhibition at 100 µM: 45.3 ± 1.7%
S. aureus ATCC 29213
  inhibition at 100 µM: 73.7 ± 0.8%
S. aureus ATCC 6538
  inhibition at 100 µM: 53.6 ± 1.8%
S. epidermidis RP62A
  inhibition at 100 µM: 48.6 ± 1.6%

## O=C(O)/C(=N\Nc1ccc(Cl)c(Cl)c1)C(=O)c1ccccc1 [Compound 5h, (2Z)-3-Oxo-2-(2-(3,4-dichlorophenyl)hydrazinylidene)-3-phenylpropanoic acid]
S. aureus SrtA
  IC50: 100 µM
S. aureus ATCC 25923
  inhibition at 100 µM: 55.9 ± 2.6%
S. aureus ATCC 29213
  inhibition at 100 µM: 42.7 ± 3.7%
S. aureus ATCC 6538
  inhibition at 100 µM: 70.1 ± 2.1%
S. epidermidis RP62A
  inhibition at 100 µM: 45.4 ± 1.6%
other
  melting point: 202 to 204 °C

## CC(=O)/C(=N/Nc1ccccc1)C(=O)O [Compound 5a, (2Z)-3-Oxo-2-(2-phenylhydrazinylidene)butanoic acid]
S. aureus SrtA
  IC50: 80 µM
S. aureus ATCC 25923; 100 µM
  Percentages of Inhibition of Biofilm Formation S. aureus 25923: 68.3 ± 2.0%
S. aureus ATCC 25923
  inhibition at 100 µM: ~60%
S. aureus ATCC 29213; 100 µM
  Percentages of Inhibition of Biofilm Formation S. aureus 29213: 62.3 ± 1.5%
S. aureus ATCC 29213
  inhibition at 100 µM: ~60%
S. aureus ATCC 6538; 100 µM
  Percentages of Inhibition of Biofilm Formation S. aureus 6538: 60.1 ± 1.7%
S. aureus ATCC 6538
  inhibition at 100 µM: ~60%
S. epidermidis RP62A; 100 µM
  Percentages of Inhibition of Biofilm Formation S. epidermidis RP62A: 61.5 ± 1.2%
S. epidermidis RP62A
  inhibition at 100 µM: ~60%

## CC(=O)/C(C#N)=N/Nc1ccccc1 [Compound 6a, (2E)-3-Oxo-2-(2-phenylhydrazinylidene)butanenitrile]
S. aureus SrtA
  IC50: 80 µM
S. aureus ATCC 25923
  inhibition at 100 µM: 45.1 ± 2.9%
S. aureus ATCC 29213
  inhibition at 100 µM: 46.2 ± 2.3%
S. aureus ATCC 6538
  inhibition at 100 µM: 51 ± 0.9%
S. epidermidis RP62A
  inhibition at 100 µM: 34.8 ± 1.8%

## COc1cc(N/N=C(/C(C)=O)C(=O)O)cc(OC)c1OC [Compound 5e, (2Z)-3-Oxo-2-(2-(3,4,5-trimethoxyphenyl)hydrazinylidene)butanoic acid]
S. aureus SrtA
  IC50: 92 µM
S. aureus ATCC 25923
  inhibition at 100 µM: 28.8 ± 2.9%
S. aureus ATCC 29213
  inhibition at 100 µM: 34.8 ± 1.3%
S. aureus ATCC 6538
  inhibition at 100 µM: 48.2 ± 0.9%
S. epidermidis RP62A
  inhibition at 100 µM: 27.1 ± 1.2%
other
  melting point: 150 to 152 °C

## CN(C)CCC(=O)c1ccc(Cl)c(Cl)c1 [DPDAP, 1-(3,4-dichlorophenyl)-3-dimethylamino-1-propanone, reference compound]
S. aureus SrtA
  IC50: 10 µM

## O=C(O)/C(=N\Nc1ccccc1)C(=O)c1ccccc1 [Compound 5g, (2Z)-3-Oxo-3-phenyl-2-(2-phenylhydrazinylidene)propanoic acid]
S. aureus SrtA
  IC50: 98 µM
S. aureus ATCC 25923
  inhibition at 100 µM: 36.8 ± 2.1%
S. aureus ATCC 29213
  inhibition at 100 µM: 36.9 ± 1.2%
S. aureus ATCC 6538
  inhibition at 100 µM: 41.9 ± 1.7%
S. epidermidis RP62A
  inhibition at 100 µM: 23.7 ± 0.7%
other
  melting point: 136 to 138 °C

## C=CS(=O)(=O)c1ccccc1 [PVS, Phenyl vinyl sulfone, reference compound]
S. aureus SrtA; 10 µM S. aureus sortase A, preincubated 1 h at 37 °C, 50 µM dabcyl-QALPETGEE-edans substrate, read-out: IC50 (activity as sortase A inhibitors)
  IC50: 736 µM

## CCOC(=O)/C(=N\Nc1ccc(Cl)c(Cl)c1)C(=O)c1ccccc1
other
  melting point: 96 to 98 °C

## CCOC(=O)/C(=N/Nc1ccc(C)cc1)C(C)=O [Compound 1f, Ethyl (2E)-3-Oxo-2-(2-(4-methylphenyl)hydrazinylidene)butanoate]
S. aureus SrtA
  IC50: > 500 µM

## CCOC(=O)/C(=N/Nc1cccc(Cl)c1)C(C)=O [Compound 1c, Ethyl (2E)-3-Oxo-2(2-(3-chlorophenyl)hydrazinylidene)butanoate]
S. aureus SrtA
  IC50: > 500 µM
other
  melting point: 70 to 72 °C

## CCOC(=O)/C(=N/Nc1ccc(Cl)c(Cl)c1)C(C)=O [Compound 1b, Ethyl (2E)-3-Oxo-2-(2-(3,4-dichlorophenyl)hydrazinylidene)butanoate]
S. aureus SrtA
  IC50: > 500 µM
other
  melting point: 100 to 102 °C

## CC(=O)/C(=N/Nc1ccc(Cl)c(Cl)c1)C(=O)O [Compound 5b, (2Z)-3-Oxo-2-(2-(3,4-dichlorophenyl)hydrazinylidene)butanoic acid]
S. aureus SrtA
  IC50: 50 µM
S. aureus ATCC 25923
  inhibition at 100 µM: 39.2 ± 1.4%
S. aureus ATCC 29213
  inhibition at 100 µM: 71.3 ± 6.4%
S. aureus ATCC 6538
  inhibition at 100 µM: 22 ± 0.9%
S. epidermidis RP62A
  inhibition at 100 µM: 29.1 ± 1.4%
